Results taken from patent US8658646B2, “Pyrrolopyrazine kinase inhibitors” (Hoffmann-LaRoche Inc., priority 2011, dated 2014).
pIC50: −log10 of the molar value. Structures can show the parent of a compound that is named as a salt.

biological target: T1, recombinant human SYK360-635 (Homo sapiens, UniProt P43405); assay: Determination of IC50 of Spleen Tyrosine Kinase (SYK) inhibition, 33P ATP filtration assay; type: biochemical; conditions: SYK aa 360-635 0.5 nM; ATP 20 μM, peptide 5 μM, 0.1% BSA; read-out: SYK_ENZYME_FILTRATION/v1, BSA
T1 construct: made in house
Method: All concentrations were final in the reaction mixture and all incubations were carried at room temperature. […] SYK Assay Information Determination of IC50 of Spleen Tyrosine Kinase (SYK) Inhibition:
SYK kinase assay is a standard kinase assay adapted to a 96 well plate format. This assay is performed in 96-well format for IC50 determination with 8 samples which represented 10 half log dilutions and a 40 μL reaction volume. The assay measures the incorporation of radiolabeled ^33P γATP into an N-terminally biotinylated peptide substrate, derived from naturally occurring phosphoacceptor consensus sequence (Biotin-11aa DY*E). […] Experimental Method:
DMSO and the mixture was incubated for 10 min at RT.
The kinase reaction was initiated by the addition of 10 μL 4× substrate cocktail containing the DYE peptide substrate [0 or 5 μM], ATP [20 μM] and ^33PγATP [2 μCi/r×n]. After incubation at 30° C. for 15 min, the reaction was terminated by the transfer of 25 μL pf the reaction sample to a 96 well 0.65 μm Millipore MADVNOB membrane/plate containing 200 μL 5 mM EDTA and 20% Streptavidine coated beads in PBS.
The unbound radionucleotides were washed under vacuum with 3×250 μL 2M NaCl; 2×250 μL 2M NaCl+1% phosphoric acid; 1×250 μL H2O. After the last wash membrane/plates were transferred to an adaptor plate, heat dried for 15 min at 60° C., and 50 μL scintillation cocktail was added to each well and 4 h later the amount of radioactivity was counted in a top counter.

| pIC50 | SMILES |
| --- | --- |
| 7.68 | Cc1ccc2c(-c3cnc4[nH]cc(C(=O)NC5(C)CCNC5)c4n3)n[nH]c2c1 (stereo not shown) [Example I-431, 2-(6-Methyl-1H-indazol-3-yl)-5H-pyrrolo[2,3-b]pyrazine-7-carboxylic acid (3-methyl-pyrrolidin-3-yl)-amide] |
| 7.79 | Cn1nc(-c2cnc3[nH]cc(C(=O)N[C@@H]4CCC[C@@H](N)C4)c3n2)c2ccc(Cl)cc21 (relative stereo) [Example I-276, 2-(6-Chloro-1-methyl-1H-indazol-3-yl)-5H-pyrrolo[2,3-b]pyrazine-7-carboxylic acid (trans-3-amino-cyclohexyl)-amide] |
| 6.56 | CC(C)NC(=O)c1c[nH]c2ncc(-c3nn(C)c4c3CCC(C)(C)C4)nc12 [Example I-279, 2-(1,6,6-Trimethyl-4,5,6,7-tetrahydro-1H-indazol-3-yl)-5H-pyrrolo[2,3-b]pyrazine-7-carboxylic acid isopropylamide] |
| 7.80 | CC(C)(C)NC(=O)c1c[nH]c2ncc(-c3nn(CC(=O)N4CCN(CC(F)(F)F)CC4)c4ccc(OC(F)F)cc34)nc12 [Example I-352, 2-(5-Difluoromethoxy-1-{2-oxo-2-[4-(2,2,2-trifluoro-ethyl)-piperazin-1-yl]-ethyl}-1H-indazol-3-yl)-5H-pyrrolo[2,3-b]pyrazine-7-carboxylic acid tert-butylamide] |
| 6.84 | Cn1nc(-c2cnc3[nH]cc(C(=O)NC(C)(C)C)c3n2)c2cc(S(C)(=O)=O)ccc21 [Example I-461, N-tert-Butyl-2-(1-methyl-5-(methylsulfonyl)-1H-indazol-3-yl)-5H-pyrrolo[3,2-b]pyrazine-7-carboxamide] |
| 8.06 | CCC(C)(C)NC(=O)c1c[nH]c2ncc(-c3nn(C)c4cc(Cl)ccc34)nc12 [Example I-391, 2-(6-Chloro-1-methyl-1H-indazol-3-yl)-5H-pyrrolo[2,3-b]pyrazine-7-carboxylic acid (1,1-dimethyl-propyl)-amide] |
| 7.50 | Cn1nc(-c2cnc3[nH]cc(C(=O)NC4(C#N)CC4)c3n2)c2ccc(F)cc21 [Example I-387, 2-(6-Fluoro-1-methyl-1H-indazol-3-yl)-5H-pyrrolo[2,3-b]pyrazine-7-carboxylic acid (1-cyano-cyclopropyl)-amide] |
| 8.56 | CC(C)(C)NC(=O)c1c[nH]c2ncc(-c3nn(CCCC(=O)O)c4ccc(OC(F)F)cc34)nc12 [Example I-262, 4-[3-(7-tert-Butylcarbamoyl-5H-pyrrolo[2,3-b]pyrazin-2-yl)-5-difluoromethoxy-indazol-1-yl]-butyric acid] |
| 7.28 | Cn1nc(-c2cnc3[nH]cc(C(=O)NC(C)(C)CCCN)c3n2)c2ccc(F)cc21 [Example I-408, 2-(6-Fluoro-1-methyl-1H-indazol-3-yl)-5H-pyrrolo[2,3-b]pyrazine-7-carboxylic acid (4-amino-1,1-dimethyl-butyl)-amide] |
| 5.67 | COc1ccc2c(c1)c(-c1cnc3[nH]cc(C(=O)N[C@@H]4CCOC[C@@H]4N)c3n1)nn2C [Example I-290, 2-(5-Methoxy-1-methyl-1H-indazol-3-yl)-5H-pyrrolo[2,3-b]pyrazine-7-carboxylic acid ((3R,4R)-3-amino-tetrahydro-pyran-4-yl)-amide] |
| 7.46 | CC(O)C(C)(C)NC(=O)c1c[nH]c2ncc(-c3nn(C)c4cc(Cl)ccc34)nc12 (stereo not shown) [Example I-413, 2-(6-Chloro-1-methyl-1H-indazol-3-yl)-5H-pyrrolo[2,3-b]pyrazine-7-carboxylic acid (2-hydroxy-1,1-dimethyl-propyl)-amide] |
| 8.27 | Cn1nc(-c2cnc3[nH]cc(C(=O)NCC4(O)CNC4)c3n2)c2ccc(F)cc21 [Example I-463, 2-(6-Fluoro-1-methyl-1H-indazol-3-yl)-N-((3-hydroxyazetidin-3-yl)methyl)-5H-pyrrolo[3,2-b]pyrazine-7-carboxamide trifluoroacetate] |
| 8.11 | Cc1ccc2c(-c3cnc4[nH]cc(C(=O)NC5(C#N)CC5)c4n3)nn(C)c2c1 [Example I-424, 2-(1,6-Dimethyl-1H-indazol-3-yl)-5H-pyrrolo[2,3-b]pyrazine-7-carboxylic acid (1-cyano-cyclopropyl)-amide] |
| 8.39 | C[C@@H](NC(=O)c1c[nH]c2ncc(-c3cn(C)c4cc(Cl)ccc34)nc12)C(=O)N1CC(C#N)C1 [Example I-29, 2-(6-Chloro-1-methyl-1H-indol-3-yl)-5H-pyrrolo[2,3-b]pyrazine-7-carboxylic acid [(R)-2-(3-cyano-azetidin-1-yl)-1-methyl-2-oxo-ethyl]-amide] |
| 8.07 | Cc1ccc2c(-c3cnc4[nH]cc(C(=O)NC(C)(C)C5CC5)c4n3)n[nH]c2c1 [Example I-433, 2-(6-Methyl-1H-indazol-3-yl)-5H-pyrrolo[2,3-b]pyrazine-7-carboxylic acid (1-cyclopropyl-1-methyl-ethyl)-amide] |
| 6.10 | Cn1nc(-c2cnc3[nH]cc(C(=O)N[C@]4(C)CC[C@H](N)CC4)c3n2)c2ccc(F)cc21 [Example I-417, 2-(6-Fluoro-1-methyl-1H-indazol-3-yl)-5H-pyrrolo[2,3-b]pyrazine-7-carboxylic acid (cis-4-amino-1-methyl-cyclohexyl)-amide] |

| pIC50 | SMILES |
| --- | --- |
| 6.98 | Cn1nc(-c2cnc3[nH]cc(C(=O)NC4(C)COC4)c3n2)c2ccc(F)cc21 [Example I-386, 2-(6-Fluoro-1-methyl-1H-indazol-3-yl)-5H-pyrrolo[2,3-b]pyrazine-7-carboxylic acid (3-methyl-oxetan-3-yl)-amide] |
| 7.66 | CC(C)NC(=O)c1c[nH]c2ncc(-c3nn(C)c4ccc(C(C)O)cc34)nc12 (stereo not shown) [Example I-269, 2-[5-(1-Hydroxy-ethyl)-1-methyl-1H-indazol-3-yl]-5H-pyrrolo[2,3-b]pyrazine-7-carboxylic acid isopropylamide] |
| 8.43 | Cn1nc(-c2cnc3[nH]cc(C(=O)NC4(C)CCCC4)c3n2)c2ccc(F)cc21 [Example I-384, 2-(6-Fluoro-1-methyl-1H-indazol-3-yl)-5H-pyrrolo[2,3-b]pyrazine-7-carboxylic acid (1-methyl-cyclopentyl)-amide] |
| 8.12 | CC(C)(N)CCCn1nc(-c2cnc3[nH]cc(C(=O)NC(C)(C)C)c3n2)c2cc(OC(F)F)ccc21 [Example I-454, 2-(1-(4-Amino-4-methylpentyl)-5-(difluoromethoxy)-1H-indazol-3-yl)-N-tert-butyl-5H-pyrrolo[3,2-b]pyrazine-7-carboxamide trifluoroacetate] |
| 7.61 | Cc1ccc2c(-c3cnc4[nH]cc(C(=O)NC(C)(C)CO)c4n3)nn(CCN3CCOCC3)c2c1 [Example I-445, 2-[6-Methyl-1-(2-morpholin-4-yl-ethyl)-1H-indazol-3-yl]-5H-pyrrolo[2,3-b]pyrazine-7-carboxylic acid (2-hydroxy-1,1-dimethyl-ethyl)-amide] |
| 7.86 | CN(C)CCCn1nc(-c2cnc3[nH]cc(C(=O)NC4(C)CC4)c3n2)c2cc(OC(F)F)ccc21 [Example I-452, 2-(5-(Difluoromethoxy)-1-(3-(dimethylamino)propyl)-1H-indazol-3-yl)-N-(1-methylcyclopropyl)-5H-pyrrolo[3,2-b]pyrazine-7-carboxamide trifluoroacetate] |
| 6.67 | CONC(=O)c1c[nH]c2ncc(-c3nn(C)c4cc(F)ccc34)nc12 [Example I-361, 2-(6-Fluoro-1-methyl-1H-indazol-3-yl)-5H-pyrrolo[2,3-b]pyrazine-7-carboxylic acid methoxy-amide] |
| 8.12 | Cn1nc(-c2cnc3[nH]cc(C(=O)NC4(CO)CC4)c3n2)c2ccc(F)cc21 [Example I-374, 2-(6-Fluoro-1-methyl-1H-indazol-3-yl)-5H-pyrrolo[2,3-b]pyrazine-7-carboxylic acid (1-hydroxymethyl-cyclopropyl)-amide] |
| 7.52 | NC1CCC(NC(=O)c2c[nH]c3ncc(-c4nn(C5CCNCC5)c5cc(F)ccc45)nc23)C1 (stereo not shown) [Example I-267, 2-(6-Fluoro-1-piperidin-4-yl-1H-indazol-3-yl)-5H-pyrrolo[2,3-b]pyrazine-7-carboxylic acid (3-amino-cyclopentyl)-amide] |
| 8.42 | CC(C)(C)NC(=O)c1c[nH]c2ncc(-c3nn(CCCO)c4ccc(OC(F)F)cc34)nc12 [Example I-298, 2-[5-Difluoromethoxy-1-(3-hydroxy-propyl)-1H-indazol-3-yl]-5H-pyrrolo[2,3-b]pyrazine-7-carboxylic acid tert-butylamide] |
| 7.33 | Cn1nc(-c2cnc3[nH]cc(C(=O)NC(C)(C)C)c3n2)c2cc(OCCCC(C)(C)N)ccc21 [Example I-449, 2-(5-(4-Amino-4-methylpentyloxy)-1-methyl-1H-indazol-3-yl)-N-tert-butyl-5H-pyrrolo[3,2-b]pyrazine-7-carboxamide 2,2,2-trifluoroacetate] |
| 7.46 | Cc1nn(-c2cnc3[nH]cc(C(=O)NC(C)(C)CO)c3n2)c2ccc(Cl)cc12 [Example I-319, 2-(5-Chloro-3-methyl-indazol-1-yl)-5H-pyrrolo[2,3-b]pyrazine-7 carboxylic acid (2-hydroxy-1,1-dimethyl-ethyl)-amide] |
| 8.40 | Cc1ccc2c(-c3cnc4[nH]cc(C(=O)NC5(C#N)CC5)c4n3)n[nH]c2c1 [Example I-437, 2-(6-Methyl-1H-indazol-3-yl)-5H-pyrrolo[2,3-b]pyrazine-7-carboxylic acid (1-cyano-cyclopropyl)-amide] |
| 5.81 | C#CC1CN(C(=O)c2c[nH]c3ncc(-c4nn(C)c5cc(F)ccc45)nc23)C1 [Example I-360, (3-Ethynyl-azetidin-1-yl)-[2-(6-fluoro-1-methyl-1H-indazol-3-yl)-5H-pyrrolo[2,3-b]pyrazin-7-yl]-methanone] |
| 8.60 | Cn1cc(Cn2nc(-c3cnc4[nH]cc(C(=O)NC(C)(C)C)c4n3)c3cc(OC(F)F)ccc32)cn1 [Example I-274, 2-[5-Difluoromethoxy-1-(1-methyl-1H-pyrazol-4-ylmethyl)-1H-indazol-3-yl]-5H-pyrrolo[2,3-b]pyrazine-7-carboxylic acid tert-butylamide] |
